Measured values as given in PubChem BioAssay (NCI).
“And” between values parts separate entries of the source, which are not always exact repeats. Identical values can stand only once.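 Compound exposure: 48 hours, 5 concentrations, 96-well plates. The concentration for 50% growth inhibition is given as GI50. TGI is the concentration that stops growth completely.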

Columns and labels:
Test in all cases: NCI anticancer screen, dose series, 48 h
[1] = tested on: SF-539 CNS
[2] = tested on: SF-295 CNS
[3] = tested on: SW-620 colon
[4] = tested on: NCI/ADR-RES ovarian
[5] = tested on: HOP-92 NSCLC
[6] = tested on: HOP-62 NSCLC
[7] = tested on: OVCAR-4 ovarian
[8] = tested on: NCI-H460 lung
[9] = tested on: KM12 colon
[10] = tested on: M14 melanoma

| SMILES | GI50 [1] | TGI [1] | GI50 [2] | TGI [2] | GI50 [3] | TGI [3] | GI50 [4] | TGI [4] | GI50 [5] | TGI [5] | GI50 [6] | TGI [6] | GI50 [7] | TGI [7] | GI50 [8] | TGI [8] | GI50 [9] | TGI [9] | GI50 [10] | TGI [10] |
| --- | --- | --- | --- | --- | --- | --- | --- | --- | --- | --- | --- | --- | --- | --- | --- | --- | --- | --- | --- | --- |
| CCn1cc(C(=O)N/N=C/c2cccs2)c(=O)c2cc(F)c(N3CCNC(C)C3)c(F)c21 (stereo unspecified) | 1620 nM | 3070 nM | 1850 nM | 3450 nM | 1710 nM | 3170 nM | 1800 nM | 3480 nM | 1090 nM | 2380 nM | 1590 nM | 3170 nM | 1960 nM | 3970 nM | 1750 nM | 3240 nM | 1730 nM | 3270 nM |  |  |
| CCN(CC)S(=O)(=O)c1cccc(-c2ccc3c(NC(=O)C4CC4)n[nH]c3c2)c1 | 1470 nM | 5600 nM | 1660 nM | > 6250 nM | 2270 nM | > 6250 nM | > 6250 nM | > 6250 nM | 2580 nM | > 6250 nM | 2540 nM | > 6250 nM | 1610 nM | > 6250 nM | 2080 nM | > 6250 nM | 1080 nM | > 6250 nM | 1470 nM | > 6250 nM |
| Cc1c(NC(=O)Nc2c(Cl)cccc2Cl)c(=O)n(-c2ccccc2)n1C |  | > 100000 nM |  | > 100000 nM |  | > 100000 nM |  | > 100000 nM |  | > 100000 nM |  | > 100000 nM |  | > 100000 nM |  | > 100000 nM |  | > 100000 nM |  | > 100000 nM |
| c1cc(C2CCCCC2)ccc1-c1cnc2nonc2n1 | 548 nM | 1870 nM | 1640 nM | 4320 nM | 502 nM | 2450 nM | 466 nM | 2720 nM | 422 nM | 2120 nM | 1210 nM | 5980 nM | 856 nM | 2280 nM | 1380 nM | 3640 nM | 973 nM | 3650 nM | 499 nM | 2160 nM |
| CC(C)c1[nH]nc2c(NCc3ccc(-c4ccccn4)cc3)nc(SCCN)nc12 | 31.4 nM and 27.2 nM | 97.9 nM and 81.1 nM | 39.1 nM and 42.5 nM | 712 nM and 2030 nM | 12 nM |  | 4870 nM and 3560 nM | 21300 nM | 16.9 nM and 22.2 nM |  | 24.7 nM and 20.6 nM | 604 nM and 187 nM | 5.85 nM | 394 nM and 1410 nM | 38.1 nM and 35.6 nM | 2050 nM and 10000 nM | 17.5 nM and 12.6 nM | 10300 nM | 15.5 nM and 18.1 nM | 151 nM and 1160 nM |
| CC(C)(O)CCc1cccc(C(=O)c2cnn(-c3ccc(F)cc3)c2N)c1 | > 25000 nM | > 25000 nM | > 25000 nM | > 25000 nM | > 25000 nM | > 25000 nM | > 21900 nM | > 25000 nM | 8700 nM | > 25000 nM | > 25000 nM | > 25000 nM | > 23300 nM | > 25000 nM | > 25000 nM | > 25000 nM | > 25000 nM | > 25000 nM | > 25000 nM | > 25000 nM |
| O=C1c2ccn(CCCNC(CO)(CO)CO)c2C(=O)c2c1c(O)c1ccccc1c2O | 11400 nM | 25600 nM | 15000 nM | > 49800 nM | 4090 nM | 18600 nM | 10700 nM | 26700 nM | 40000 nM | > 86900 nM | 2430 nM | 17900 nM | 29200 nM | > 51200 nM | 10200 nM | 29300 nM | 11100 nM | 25700 nM | 14100 nM | 30100 nM |
